Measured values published in patent US20120190666A1, “Heteroaryl Compounds as PIKK Inhibitors” (Amgen Inc., priority 2009, published 2012).

Columns and labels:
[1] = target: mTOR (Homo sapiens, UniProt P42345); assay: mTOR LanthaScreen (TR-FRET, phosphorylation of 4EBP1); format: biochemical; conditions: phosphorylation of GFP-4E-BP1, 10 μM ATP, 90 minutes
Protocol: The mTOR LanthaScreen is a TR-FRET assay measuring the phosphorylation of mTOR's substrate 4EBP1. 384 well compound plates were prepared containing 1 μl of compound per well starting at 5 mM and diluted 1:2 across the row, resulting in a 22 well serial dilution. 24 μl of assay buffer (Invitrogen, PV4794) with 2 mM DTT was added to the compound plate in rows 1-24 using the VELOCITY 11™ VPREP™ 384 ST resulting in a DMSO concentration of 4%. The compound plate was mixed and 2.5 μl of serially diluted compound or controls was added to the assay plate (Costar, 3658).
The assay was conducted on the PerkinElmer® FlexDrop PLUS. A 5 μl mix of 800 nM GFP-4E-BP1 (Invitrogen, PV4759) and 20 μM ATP (Amgen) was added to rows 1-24. 2.5 μl of 0.6 μg/ml of mTOR Enzyme (Amgen) was added to rows 1-23. 2.5 μl of assay buffer was added to row 24 for the low control. The final concentration of the compounds was 50 μM serially diluted to 23.84 pM in 1% DMSO. […] The final concentrations in the assay reagents were 400 nM GFP-4E-BP1, 10 μM of ATP and 0.15 μg/ml of mTOR enzyme. The compound, enzyme, and substrate were incubated for 90 minutes. At this point, 10 μl of stop solution was added (20 mM Tris, pH 7.5 (Invitrogen, 15567-027), 0.02% Sodium Azide (Teknova, S0208), 0.01% NP-40 (Roche, 11754599001), 20 mM EDTA (Invitrogen, 15575-038) and 4 nM of Tb-anti-p4E-BP1 (Invitrogen, PV4758)) for a final concentration of 2 nM of Tb-anti-p4E-BP1.
Sixty minutes later the plates were read on the PerkinElmer® EnVision™ 2103 Multilable Reader using the Excitation filter 340 nm and the Emission filters 520 nm and 495 nm.

[2] = target: T1, PI3Kα (Homo sapiens, UniProt P42336); assay: In vitro PI3K AlphaScreen assay, PI3Kα; format: biochemical; conditions: PI(4,5)P2 substrate, 20 minutes at room temperature, read-out: P13Kalpha IC50 um
T1 construct: Full length p110 subunits of PI3K α, β and δ, N-terminally labeled with polyHis tag; polyHis (N); made in house; host or cells: Sf9 insect cells (baculovirus)
Method in brief: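 PI3Kα at 1.6 nM (2× stock) with PI(4,5)P2 10 μM and ATP 20 μM (2× stocks) in Tris pH 7, MgCl2, cholate, NaCl, DTT; 20 min at room temperature. Quenched with biotin-IP4/streptavidin-Donor beads, then GST-PIP3-binding protein/anti-GST Acceptor beads, 1.5 h dark; PIP3 formation read as loss of AlphaScreen signal.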

T1 sequence (P42336 whole entry): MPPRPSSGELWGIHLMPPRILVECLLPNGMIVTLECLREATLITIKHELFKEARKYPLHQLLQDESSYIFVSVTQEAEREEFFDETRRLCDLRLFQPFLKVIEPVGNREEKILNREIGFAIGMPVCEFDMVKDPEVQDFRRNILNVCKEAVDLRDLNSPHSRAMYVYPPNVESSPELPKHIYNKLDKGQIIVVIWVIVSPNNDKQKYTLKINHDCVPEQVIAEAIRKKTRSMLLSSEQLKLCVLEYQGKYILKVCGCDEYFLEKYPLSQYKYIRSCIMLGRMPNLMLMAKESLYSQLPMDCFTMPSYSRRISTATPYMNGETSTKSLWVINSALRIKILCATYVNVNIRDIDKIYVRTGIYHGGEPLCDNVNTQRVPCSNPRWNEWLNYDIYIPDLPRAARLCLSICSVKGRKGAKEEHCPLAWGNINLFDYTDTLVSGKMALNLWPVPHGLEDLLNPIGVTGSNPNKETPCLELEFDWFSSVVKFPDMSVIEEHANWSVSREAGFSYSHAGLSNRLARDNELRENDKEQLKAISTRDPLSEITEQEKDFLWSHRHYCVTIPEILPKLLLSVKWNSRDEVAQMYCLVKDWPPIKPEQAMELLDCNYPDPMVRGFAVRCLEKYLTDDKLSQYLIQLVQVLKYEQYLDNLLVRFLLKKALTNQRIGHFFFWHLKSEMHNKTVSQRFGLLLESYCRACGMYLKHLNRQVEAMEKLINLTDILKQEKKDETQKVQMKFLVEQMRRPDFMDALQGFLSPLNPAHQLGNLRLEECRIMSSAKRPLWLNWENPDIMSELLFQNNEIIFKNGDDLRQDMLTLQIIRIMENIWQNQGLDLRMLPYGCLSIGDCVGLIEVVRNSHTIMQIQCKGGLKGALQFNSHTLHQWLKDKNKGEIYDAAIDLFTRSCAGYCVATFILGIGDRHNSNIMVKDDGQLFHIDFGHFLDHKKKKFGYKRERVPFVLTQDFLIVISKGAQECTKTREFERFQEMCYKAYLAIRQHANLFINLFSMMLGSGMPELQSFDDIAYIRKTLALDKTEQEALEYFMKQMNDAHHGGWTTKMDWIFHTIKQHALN
T1 sequence (P27986 whole entry partner): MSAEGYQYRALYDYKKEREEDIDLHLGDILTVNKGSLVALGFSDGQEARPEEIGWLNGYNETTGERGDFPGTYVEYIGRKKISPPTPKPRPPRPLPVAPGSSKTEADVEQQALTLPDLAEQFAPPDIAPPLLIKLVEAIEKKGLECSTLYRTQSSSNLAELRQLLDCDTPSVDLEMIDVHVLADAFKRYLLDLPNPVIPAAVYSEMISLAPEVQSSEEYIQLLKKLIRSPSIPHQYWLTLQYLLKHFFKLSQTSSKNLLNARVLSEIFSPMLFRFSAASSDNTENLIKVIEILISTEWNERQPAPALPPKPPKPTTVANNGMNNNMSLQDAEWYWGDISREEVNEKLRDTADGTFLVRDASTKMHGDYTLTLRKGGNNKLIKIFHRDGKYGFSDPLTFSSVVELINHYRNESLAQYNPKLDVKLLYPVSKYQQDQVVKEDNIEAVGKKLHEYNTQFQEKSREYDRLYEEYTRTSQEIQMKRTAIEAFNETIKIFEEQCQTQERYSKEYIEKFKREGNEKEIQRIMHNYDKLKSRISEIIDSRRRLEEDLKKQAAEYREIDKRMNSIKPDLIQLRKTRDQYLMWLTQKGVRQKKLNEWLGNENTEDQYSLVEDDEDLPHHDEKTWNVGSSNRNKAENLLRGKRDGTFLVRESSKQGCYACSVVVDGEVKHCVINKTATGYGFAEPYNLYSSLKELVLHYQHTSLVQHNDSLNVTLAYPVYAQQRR

CNc1cc(-c2c(Nc3cc[nH]n3)nc3ccc(N4CCOCC4)nn23)nc(C)n1 [Cpd 72, 3-(2-methyl-6-(methylamino)-4-pyrimidinyl)-6-(4-morpholinyl)-N-1H-pyrazol-3-ylimidazo[1,2-b]pyridazin-2-amine]
IC50 [1]: 40 nM | IC50 [2]: 110 nM

COc1ccc(-c2ccc3nc(Nc4ccn[nH]4)c(-c4nc(C)nc(N)n4)n3c2)cc1CO [Cpd 286]
IC50 [1]: 120 nM | IC50 [2]: 130 nM

CCNC(=O)Nc1ccc(Nc2nc3ccccn3c2-c2cc(N)nc(C)n2)cc1 [Cpd 40, 1-(4-((3-(6-amino-2-methyl-4-pyrimidinyl)imidazo[1,2-a]pyridin-2-yl)amino)phenyl)-3-ethylurea]
IC50 [1]: 10 nM | IC50 [2]: 450 nM

Cc1nc(NC(=O)CC(F)(F)F)cc(-c2c(Nc3ccn(C)n3)nc3cccnn23)n1 [Cpd 134, 3,3,3-trifluoro-N-(2-methyl-6-(2-((1-methyl-1H-pyrazol-3-yl)amino)imidazo[1,2-b]pyridazin-3-yl)-4-pyrimidinyl)propanamide]
IC50 [1]: 820 nM | IC50 [2]: 2080 nM

Cc1nc(N)cc(-c2c(Nc3ccn(C(=O)NCc4ccccc4)n3)nc3ccccn23)n1 [Cpd 222, 3-((3-(6-amino-2-methyl-4-pyrimidinyl)imidazo[1,2-a]pyridin-2-yl)amino)-N-benzyl-1H-pyrazole-1-carboxamide]
IC50 [1]: 5880 nM | IC50 [2]: 1200 nM

CCOC(=O)c1cc(Nc2cc[nH]n2)n(-c2cc(N)nc(C)n2)n1 [Cpd 15, ethyl 5-(1H-pyrazol-3-ylamino)-1-(6-amino-2-methylpyrimidin-4-yl)-1H-pyrazole-3-carboxylate]
IC50 [1]: 144 nM | IC50 [2]: 340 nM

COc1ccc(Nc2cc(C)nn2-c2cc(N)nc(C)n2)cn1 [Cpd 24, 6-(5-(6-methoxypyridin-3-ylamino)-3-methyl-1H-pyrazol-1-yl)-2-methylpyrimidin-4-amine]
IC50 [1]: > 50000 nM | IC50 [2]: 790 nM

Cc1nc(NC(=O)CN(C)C)cc(-c2c(Nc3ccn(C)n3)nc3cccnn23)n1 [Cpd 92]
IC50 [1]: 780 nM | IC50 [2]: 20100 nM

Cc1nc(N)nc(-c2c(Nc3cc[nH]n3)nc3ccc(-c4ccc(F)cc4C)cn23)n1 [Cpd 107, 3-(4-amino-6-methyl-1,3,5-triazin-2-yl)-6-(4-fluoro-2-methylphenyl)-N-1H-pyrazol-3-ylimidazo[1,2-a]pyridin-2-amine]
IC50 [1]: 40 nM | IC50 [2]: 250 nM

CNc1nc(C)nc(-c2c(Nc3cc[nH]n3)nc3ccccn23)n1 [Cpd 3, 3-(4-methyl-6-(methylamino)-1,3,5-triazin-2-yl)-N-(1H-pyrazol-3-yl)imidazo[1,2-a]pyridin-2-amine]
IC50 [1]: 53 nM | IC50 [2]: 820 nM

CC(=O)NCc1ccc(-c2ccc3nc(Nc4cc[nH]n4)c(-c4nc(C)nc(N)n4)n3c2)cc1 [Cpd 100, N-(4-(3-(4-amino-6-methyl-1,3,5-triazin-2-yl)-2-(1H-pyrazol-3-ylamino)imidazo[1,2-a]pyridin-6-yl)benzyl)acetamide]
IC50 [1]: 1 nM | IC50 [2]: 420 nM

Cc1nc(Nc2ccc(N3CCN(C)CC3)nn2)cc(-c2c(Nc3cc[nH]n3)nc3cccnn23)n1 [Cpd 35, 3-(2-methyl-6-((6-(4-methyl-1-piperazinyl)-3-pyridazinyl)amino)-4-pyrimidinyl)-N-1H-pyrazol-3-ylimidazo[1,2-b]pyridazin-2-amine]
IC50 [1]: 10 nM | IC50 [2]: 110 nM

Cc1nc(NCC#N)cc(-c2c(Nc3cc[nH]n3)nc3cccnn23)n1 [Cpd 90]
IC50 [1]: 30 nM | IC50 [2]: 590 nM

Cc1nc(N)cc(-c2c(Nc3ccn(C(=O)Nc4cc(F)cc(F)c4)n3)nc3cccnn23)n1 [Cpd 242, 3-((3-(6-amino-2-methyl-4-pyrimidinyl)imidazo[1,2-b]pyridazin-2-yl)amino)-N-(3,5-difluorophenyl)-1H-pyrazole-1-carboxamide]
IC50 [1]: 80 nM | IC50 [2]: 2320 nM

COCCOc1ccn2c(-c3nc(C)nc(N)n3)c(Nc3cc[nH]n3)nc2c1 [Cpd 185, 3-(4-amino-6-methyl-1,3,5-triazin-2-yl)-7-(2-methoxyethoxy)-N-1H-pyrazol-3-ylimidazo[1,2-a]pyridin-2-amine]
IC50 [1]: 40 nM | IC50 [2]: 700 nM

Cc1nc(N)nc(-c2c(Nc3cc[nH]n3)nc3ccc(Nc4ccncc4)cn23)n1 [Cpd 166]
IC50 [1]: 25 nM | IC50 [2]: 5650 nM

Cc1nc(N)cc(-c2c(Nc3ccn(C(=O)Nc4ccccc4C(F)(F)F)n3)nc3cccnn23)n1 [Cpd 239, 3-((3-(6-amino-2-methyl-4-pyrimidinyl)imidazo[1,2-b]pyridazin-2-yl)amino)-N-(2-(trifluoromethyl)phenyl)-1H-pyrazole-1-carboxamide]
IC50 [1]: 8 nM | IC50 [2]: 3010 nM

Cc1nc(Nc2ccccc2F)cc(-c2c(Nc3cc[nH]n3)nc3cccnn23)n1 [Cpd 31, 3-(6-((2-fluorophenyl)amino)-2-methyl-4-pyrimidinyl)-N-1H-pyrazol-3-ylimidazo[1,2-b]pyridazin-2-amine]
IC50 [1]: 6180 nM | IC50 [2]: 2760 nM

Cc1cc(Nc2cc[nH]n2)n(-c2cc(N)nc(C)n2)n1 [Cpd 18, 6-(5-(1H-pyrazol-3-ylamino)-3-methyl-1H-pyrazol-1-yl)-2-methylpyrimidin-4-amine]
IC50 [1]: 860 nM | IC50 [2]: 3230 nM

Cc1nc(Nc2ccc(N3CCOC(C)C3)nn2)cc(-c2c(Nc3cc[nH]n3)nc3cccnn23)n1 (stereo not shown) [Cpd 140, 3-(2-methyl-6-((6-(2-methyl-4-morpholinyl)-3-pyridazinyl)amino)-4-pyrimidinyl)-N-1H-pyrazol-3-ylimidazo[1,2-b]pyridazin-2-amine]
IC50 [1]: 110 nM | IC50 [2]: 60 nM

Cc1nc(N)cc(-c2c(Nc3ccc4cc[nH]c4n3)nc3ccccn23)n1 [Cpd 41, 3-(6-amino-2-methyl-4-pyrimidinyl)-N-1H-pyrrolo[2,3-b]pyridin-6-ylimidazo[1,2-a]pyridin-2-amine]
IC50 [1]: 400 nM | IC50 [2]: 43200 nM

Cc1nc(N)cc(-n2nc(C(=O)N3CCOCC3)cc2Nc2ccn[nH]2)n1 [Cpd 13, (5-(1H-pyrazol-5-ylamino)-1-(6-amino-2-methylpyrimidin-4-yl)-1H-pyrazol-3-yl)(morpholino)methanone]
IC50 [1]: 100 nM | IC50 [2]: 1120 nM

Cc1nc(N)cc(-n2nc(C(=O)NC3CC3)cc2Nc2cc[nH]n2)n1 [Cpd 16, 5-(1H-pyrazol-5-ylamino)-1-(6-amino-2-methylpyrimidin-4-yl)-N-cyclopropyl-1H-pyrazole-3-carboxamide]
IC50 [1]: 380 nM | IC50 [2]: 2380 nM

CSc1cccc(-c2ccc3nc(Nc4cc[nH]n4)c(-c4nc(C)nc(N)n4)n3c2)c1 [Cpd 109, 3-(4-amino-6-methyl-1,3,5-triazin-2-yl)-6-(3-(methylsulfanyl)phenyl)-N-1H-pyrazol-3-ylimidazo[1,2-a]pyridin-2-amine]
IC50 [1]: 50 nM | IC50 [2]: 470 nM

Cc1nc(N)nc(-c2c(Nc3cnn(C(=O)Oc4ccccc4)c3)nc3ccccn23)n1 [Cpd 209, phenyl 4-((3-(4-amino-6-methyl-1,3,5-triazin-2-yl)imidazo[1,2-a]pyridin-2-yl)amino)-1H-pyrazole-1-carboxylate]
IC50 [1]: 300 nM | IC50 [2]: 830 nM

Cc1nc(N)cc(-c2c(Nc3ccn(C)n3)nc3ccc(-c4cccc(S(C)(=O)=O)c4)cn23)n1 [Cpd 65, 3-(6-amino-2-methyl-4-pyrimidinyl)-N-(1-methyl-1H-pyrazol-3-yl)-6-(3-(methylsulfonyl)phenyl)imidazo[1,2-a]pyridin-2-amine]
IC50 [1]: 340 nM | IC50 [2]: 8690 nM

Cc1nc(N)cc(-c2c(Nc3cc[nH]n3)nc3cccnn23)n1 [Cpd 7, 3-(6-amino-2-methylpyrimidin-4-yl)-N-(1H-pyrazol-3-yl)imidazo[1,2-b]pyridazin-2-amine]
IC50 [1]: 11 nM | IC50 [2]: 830 nM

CNC(=O)c1ccc(-c2ccc3nc(Nc4cc[nH]n4)c(-c4nc(C)nc(N)n4)n3c2)cc1F [Cpd 99, 4-(3-(4-amino-6-methyl-1,3,5-triazin-2-yl)-2-(1H-pyrazol-3-ylamino)imidazo[1,2-a]pyridin-6-yl)-2-fluoro-N-methylbenzamide]
IC50 [1]: 4 nM | IC50 [2]: 110 nM

Cc1nc(N)nc(-c2c(Nc3cc[nH]n3)nc3ccccn23)n1 [Cpd 1, 3-(4-amino-6-methyl-1,3,5-triazin-2-yl)-N-(1H-pyrazol-3-yl)imidazo[1,2-a]pyridin-2-amine]
IC50 [1]: 12 nM | IC50 [2]: 820 nM
